Test results from ChEMBL document CHEMBL3885861, “Open TG-GATES”.

Species on record: Rattus norvegicus
Test: Open TG-GATES - Regimen: Daily Repeat
Assay type: toxicity, organism-based, Sprague-Dawley
Parameters: regimen Daily Repeat, gender Male, age 6 weeks
Settings: in vivo, po, 0 mg/kg, route gavage, dose level Control; for APTT / Bas / Eos / Fbg / Hb / Ht / Lym / MCH / MCHC / MCV / Mono / Neu / PT / Plat / RBC / Ret / WBC: tissue Blood; for KIDNEY_L / KIDNEY_R / KIDNEY_TOTAL: tissue Kidney; for LIVER: tissue Liver; for A/G / ALP / ALT / AST / BUN / CRE / Ca / Cl / DBIL / GLC / IP / K / LDH / Na / PL / RALB / TBIL / TC / TG / TP / gamma-GTP: tissue Plasma

CN(C)CCC=C1c2ccccc2CCc2ccccc21 [AMITRIPTYLINE]
TERMINAL_BW (72 h, time 3 day): 226.6 g | APTT (72 h, time 3 day): 14.9 s | Bas (72 h, time 3 day): 0% | Eos (72 h, time 3 day): 1.2% | Fbg (72 h, time 3 day): 287.4 mg/dL | Hb (72 h, time 3 day): 13 g/dL | Ht (72 h, time 3 day): 39.9% | Lym (72 h, time 3 day): 71.4% | MCH (72 h, time 3 day): 21.3 pg | MCHC (72 h, time 3 day): 32.7% | MCV (72 h, time 3 day): 65.1 fL | Mono (72 h, time 3 day): 3.4% | Neu (72 h, time 3 day): 23.4% | PT (72 h, time 3 day): 15.5 s | Plat (72 h, time 3 day): 116.7 x10_4/uL | RBC (72 h, time 3 day): 613.4 x10_4/ul | Ret (72 h, time 3 day): 7.7% | WBC (72 h, time 3 day): 71.8 x10_2/uL | KIDNEY_L (72 h, time 3 day): 0.9 g | KIDNEY_R (72 h, time 3 day): 0.9 g | KIDNEY_TOTAL (72 h, time 3 day): 1.8 g | LIVER (72 h, time 3 day): 10.7 g | A/G (72 h, time 3 day): 0.8 | ALP (72 h, time 3 day): 1976.4 IU/L | ALT (72 h, time 3 day): 54.6 IU/L | AST (72 h, time 3 day): 74.2 IU/L | BUN (72 h, time 3 day): 16.4 mg/dL | CRE (72 h, time 3 day): 0.2 mg/dL | Ca (72 h, time 3 day): 11.2 mg/dL | Cl (72 h, time 3 day): 105.6 meq/L | DBIL (72 h, time 3 day): 0.02 mg/dL | GLC (72 h, time 3 day): 179.4 mg/dL | IP (72 h, time 3 day): 7.9 mg/dL | K (72 h, time 3 day): 4.1 meq/L | LDH (72 h, time 3 day): 81 IU/L | Na (72 h, time 3 day): 143.8 meq/L | PL (72 h, time 3 day): 162.2 mg/dL | RALB (72 h, time 3 day): 2.7 g/dL | TBIL (72 h, time 3 day): 0.054 mg/dL | TC (72 h, time 3 day): 83.2 mg/dL | TG (72 h, time 3 day): 121.8 mg/dL | TP (72 h, time 3 day): 5.9 g/dL | gamma-GTP (72 h, time 3 day): 0.6 IU/L | TERMINAL_BW ([…], time 7 day): 259.7 g | TERMINAL_BW ([…], time 14 day): 318.6 g | TERMINAL_BW ([…], time 28 day): 406.1 g | APTT ([…], time 7 day): 16.5 s | Bas ([…], time 7 day): 0.6% | Eos ([…], time 7 day): 1% | Fbg ([…], time 7 day): 302.6 mg/dL | Hb ([…], time 7 day): 13.5 g/dL | Ht ([…], time 7 day): 40.7% | Lym ([…], time 7 day): 78.8% | MCH ([…], time 7 day): 20.8 pg | MCHC ([…], time 7 day): 33.1% | MCV ([…], time 7 day): 62.8 fL | Mono ([…], time 7 day): 2.8% | Neu ([…], time 7 day): 16.4% | PT ([…], time 7 day): 15.2 s | Plat ([…], time 7 day): 109.9 x10_4/uL | RBC ([…], time 7 day): 648.8 x10_4/ul | Ret ([…], time 7 day): 5.7% | WBC ([…], time 7 day): 86.3 x10_2/uL | APTT ([…], time 14 day): 17.3 s | Bas ([…], time 14 day): 0% | Eos ([…], time 14 day): 1% | Fbg ([…], time 14 day): 294.4 mg/dL | Hb ([…], time 14 day): 13.8 g/dL | Ht ([…], time 14 day): 41.5% | Lym ([…], time 14 day): 76.8% | MCH ([…], time 14 day): 20.9 pg | MCHC ([…], time 14 day): 33.3% | MCV ([…], time 14 day): 62.5 fL | Mono ([…], time 14 day): 2.2% | Neu ([…], time 14 day): 19% | PT ([…], time 14 day): 15.6 s | Plat ([…], time 14 day): 127.9 x10_4/uL | RBC ([…], time 14 day): 664.4 x10_4/ul | Ret ([…], time 14 day): 4.7% | WBC ([…], time 14 day): 94.5 x10_2/uL | APTT ([…], time 28 day): 18.5 s | Bas ([…], time 28 day): 0.2% | Eos ([…], time 28 day): 1% | Fbg ([…], time 28 day): 253 mg/dL | Hb ([…], time 28 day): 14.9 g/dL | Ht ([…], time 28 day): 43.8% | Lym ([…], time 28 day): 77.2% | MCH ([…], time 28 day): 19.6 pg | MCHC ([…], time 28 day): 33.9% | MCV ([…], time 28 day): 57.7 fL | Mono ([…], time 28 day): 2.6% | Neu ([…], time 28 day): 18.2% | PT ([…], time 28 day): 16.2 s | Plat ([…], time 28 day): 104.1 x10_4/uL | RBC ([…], time 28 day): 760.8 x10_4/ul | Ret ([…], time 28 day): 2.5% | WBC ([…], time 28 day): 120.5 x10_2/uL | KIDNEY_L ([…], time 7 day): 1 g | KIDNEY_R ([…], time 7 day): 1 g | KIDNEY_TOTAL ([…], time 7 day): 2 g | KIDNEY_L ([…], time 14 day): 1.2 g | KIDNEY_R ([…], time 14 day): 1.2 g | KIDNEY_TOTAL ([…], time 14 day): 2.5 g | KIDNEY_L ([…], time 28 day): 1.4 g | KIDNEY_R ([…], time 28 day): 1.4 g | KIDNEY_TOTAL ([…], time 28 day): 2.8 g | LIVER ([…], time 7 day): 11.9 g | LIVER ([…], time 14 day): 14 g | LIVER ([…], time 28 day): 17 g | A/G ([…], time 7 day): 0.8 | ALP ([…], time 7 day): 1482.8 IU/L | ALT ([…], time 7 day): 40.8 IU/L | AST ([…], time 7 day): 64.2 IU/L | BUN ([…], time 7 day): 16 mg/dL | CRE ([…], time 7 day): 0.2 mg/dL | Ca ([…], time 7 day): 10.9 mg/dL | Cl ([…], time 7 day): 106.4 meq/L | DBIL ([…], time 7 day): 0.014 mg/dL | GLC ([…], time 7 day): 185.8 mg/dL | IP ([…], time 7 day): 7.5 mg/dL | K ([…], time 7 day): 3.9 meq/L | LDH ([…], time 7 day): 56.4 IU/L | Na ([…], time 7 day): 143.8 meq/L | PL ([…], time 7 day): 165.8 mg/dL | RALB ([…], time 7 day): 2.6 g/dL | TBIL ([…], time 7 day): 0.052 mg/dL | TC ([…], time 7 day): 81.2 mg/dL | TG ([…], time 7 day): 131.2 mg/dL | TP ([…], time 7 day): 5.8 g/dL | gamma-GTP ([…], time 7 day): 0.6 IU/L | A/G ([…], time 14 day): 0.8 | ALP ([…], time 14 day): 1703.4 IU/L | ALT ([…], time 14 day): 41.8 IU/L | AST ([…], time 14 day): 68.6 IU/L | BUN ([…], time 14 day): 17.6 mg/dL | CRE ([…], time 14 day): 0.2 mg/dL | Ca ([…], time 14 day): 10.9 mg/dL | Cl ([…], time 14 day): 106 meq/L | DBIL ([…], time 14 day): 0.024 mg/dL | GLC ([…], time 14 day): 191.8 mg/dL | IP ([…], time 14 day): 6.3 mg/dL | K ([…], time 14 day): 4.3 meq/L | LDH ([…], time 14 day): 70.8 IU/L | Na ([…], time 14 day): 142.4 meq/L | PL ([…], time 14 day): 157 mg/dL | RALB ([…], time 14 day): 2.7 g/dL | TBIL ([…], time 14 day): 0.046 mg/dL | TC ([…], time 14 day): 71.6 mg/dL | TG ([…], time 14 day): 128.8 mg/dL | TP ([…], time 14 day): 6.1 g/dL | gamma-GTP ([…], time 14 day): 0.4 IU/L | A/G ([…], time 28 day): 0.8 | ALP ([…], time 28 day): 1151.8 IU/L | ALT ([…], time 28 day): 47.2 IU/L | AST ([…], time 28 day): 83 IU/L | BUN ([…], time 28 day): 17.6 mg/dL | CRE ([…], time 28 day): 0.2 mg/dL | Ca ([…], time 28 day): 10.5 mg/dL | Cl ([…], time 28 day): 104.8 meq/L | DBIL ([…], time 28 day): 0.02 mg/dL | GLC ([…], time 28 day): 198.6 mg/dL | IP ([…], time 28 day): 6.3 mg/dL | K ([…], time 28 day): 3.7 meq/L | LDH ([…], time 28 day): 116.2 IU/L | Na ([…], time 28 day): 143 meq/L | PL ([…], time 28 day): 138 mg/dL | RALB ([…], time 28 day): 2.8 g/dL | TBIL ([…], time 28 day): 0.058 mg/dL | TC ([…], time 28 day): 62 mg/dL | TG ([…], time 28 day): 134.8 mg/dL | TP ([…], time 28 day): 6.2 g/dL | gamma-GTP ([…], time 28 day): 0.4 IU/L
